Source: PubChem BioAssay (NCI)
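Results reflect a 48-hour exposure of cells in 96-well plates to compound at five concentrations. GI50 = concentration required for 50% inhibition of growth. Definition used: TGI = concentration required for complete inhibition of growth.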

Experiments:
Test in all cases: DTP human tumour cell line panel, 48 h
[1] = system: 786-0 renal
[2] = system: A498 renal
[3] = system: A549 NSCLC
[4] = system: ACHN renal
[5] = system: CAKI-1 renal
[6] = system: CCRF-CEM leukemia
[7] = system: COLO 205 colon
[8] = system: DLD-1 colon
[9] = system: DMS 114 small cell lung
[10] = system: DMS 273 small cell lung
[11] = system: EKVX NSCLC
[12] = system: HCC-2998 colon
[13] = system: HCT-116 colon
[14] = system: HCT-15 colon
[15] = system: HL-60(TB) leukemia
[16] = system: HOP-18 NSCLC
[17] = system: HOP-62 NSCLC
[18] = system: HOP-92 NSCLC
[19] = system: HT29 colon
[20] = system: IGROV1 ovarian
[21] = system: K-562 leukemia
[22] = system: KM12 colon
[23] = system: KM20L2 colon
[24] = system: LOX IMVI melanoma
[25] = system: LXFL 529 NSCLC
[26] = system: M14 melanoma
[27] = system: M19-MEL melanoma
[28] = system: MALME-3M melanoma
[29] = system: MOLT-4 leukemia
[30] = system: NCI-H226 lung
[31] = system: NCI-H23 lung
[32] = system: NCI-H460 lung
[33] = system: NCI-H522 lung
[34] = system: OVCAR-3 ovarian
[35] = system: OVCAR-4 ovarian
[36] = system: OVCAR-5 ovarian
[37] = system: OVCAR-8 ovarian
[38] = system: RPMI-8226 leukemia
[39] = system: RXF 393 renal
[40] = system: RXF-631 renal
[41] = system: SF-268 CNS
[42] = system: SF-295 CNS
[43] = system: SF-539 CNS
[44] = system: SK-MEL-2 melanoma
[45] = system: SK-MEL-28 melanoma
[46] = system: SK-MEL-5 melanoma
[47] = system: SK-OV-3 ovarian
[48] = system: SNB-19 CNS
[49] = system: SNB-75 CNS
[50] = system: SNB-78 CNS
[51] = system: SW-620 colon
[52] = system: TK-10 renal
[53] = system: U251 CNS
[54] = system: UACC-257 melanoma
[55] = system: UACC-62 melanoma
[56] = system: UO-31 renal
[57] = system: XF 498 CNS
[58] = system: SN12C renal
[59] = system: SR leukemia

## CN1C(=O)n2c(nc3ccccc32)C(N=[N+]=[N-])(N=[N+]=[N-])C1=O (centres undefined)
[1]
  TGI: > 100 µM
[2]
  TGI: > 100 µM
[3]
  TGI: > 100 µM
[4]
  TGI: > 100 µM
[5]
  TGI: > 100 µM
[6]
  TGI: > 100 µM
[7]
  TGI: > 100 µM
[8]
  TGI: > 100 µM
[9]
  TGI: > 100 µM
[10]
  TGI: > 100 µM
[11]
  TGI: > 100 µM
[12]
  TGI: > 100 µM
[13]
  TGI: > 100 µM
[14]
  TGI: > 100 µM
[15]
  TGI: > 100 µM
[16]
  TGI: > 100 µM
[17]
  TGI: > 100 µM
[18]
  TGI: > 100 µM
[19]
  TGI: > 100 µM
[20]
  TGI: > 100 µM
[21]
  TGI: > 100 µM
[22]
  TGI: > 100 µM
[23]
  TGI: > 100 µM
[24]
  TGI: > 100 µM
[25]
  TGI: > 100 µM
[26]
  TGI: > 100 µM
[27]
  TGI: > 100 µM
[28]
  TGI: > 100 µM
[29]
  TGI: > 100 µM
[30]
  TGI: > 100 µM
[31]
  TGI: > 100 µM
[32]
  TGI: > 100 µM
[33]
  TGI: > 100 µM
[34]
  TGI: > 100 µM
[35]
  TGI: > 100 µM
[36]
  TGI: > 100 µM
[37]
  TGI: > 100 µM
[38]
  TGI: > 100 µM
[39]
  TGI: > 100 µM
[40]
  TGI: > 100 µM
[41]
  TGI: > 100 µM
[42]
  TGI: > 100 µM
[43]
  TGI: > 100 µM
[44]
  TGI: > 100 µM
[45]
  TGI: > 100 µM
[46]
  TGI: > 100 µM
[47]
  TGI: > 100 µM
[48]
  TGI: > 100 µM
[49]
  TGI: > 100 µM
[50]
  TGI: > 100 µM
[51]
  TGI: > 100 µM
[52]
  TGI: > 100 µM
[53]
  TGI: > 100 µM
[54]
  TGI: > 100 µM
[55]
  TGI: > 100 µM
[56]
  TGI: > 100 µM
[57]
  TGI: > 100 µM

## O=C1c2ccccc2C(=O)N1/N=C\c1ccc(Br)cc1
[1]
  GI50: > 100 µM
  TGI: > 100 µM
[2]
  GI50: > 100 µM
  TGI: > 100 µM
[3]
  GI50: > 100 µM
  TGI: > 100 µM
[4]
  GI50: > 100 µM
  TGI: > 100 µM
[5]
  TGI: > 10 µM
[6]
  GI50: > 100 µM
  TGI: > 100 µM
[7]
  TGI: > 100 µM
[8]
  GI50: > 100 µM
  TGI: > 100 µM
[9]
  GI50: > 100 µM
  TGI: > 100 µM
[10]
  GI50: > 100 µM
  TGI: > 100 µM
[11]
  GI50: > 100 µM
  TGI: > 100 µM
[12]
  GI50: > 100 µM
  TGI: > 100 µM
[13]
  GI50: > 100 µM
  TGI: > 100 µM
[14]
  GI50: > 100 µM
  TGI: > 100 µM
[15]
  GI50: > 100 µM
  TGI: > 100 µM
[16]
  TGI: > 10 µM
[17]
  GI50: > 100 µM
  TGI: > 100 µM
[18]
  GI50: > 100 µM
  TGI: > 100 µM
[19]
  GI50: > 100 µM
  TGI: > 100 µM
[20]
  GI50: > 100 µM
  TGI: > 100 µM
[21]
  GI50: > 100 µM
  TGI: > 100 µM
[22]
  GI50: > 100 µM
  TGI: > 100 µM
[23]
  GI50: > 100 µM
  TGI: > 100 µM
[24]
  TGI: > 10 µM
[25]
  GI50: > 100 µM
  TGI: > 100 µM
[26]
  GI50: > 100 µM
  TGI: > 100 µM
[27]
  GI50: > 100 µM
  TGI: > 100 µM
[28]
  GI50: > 100 µM
  TGI: > 100 µM
[29]
  GI50: > 100 µM
  TGI: > 100 µM
[30]
  GI50: > 100 µM
  TGI: > 100 µM
[31]
  GI50: > 100 µM
  TGI: > 100 µM
[32]
  TGI: > 10 µM
[33]
  TGI: > 100 µM
[34]
  GI50: > 100 µM
  TGI: > 100 µM
[35]
  GI50: > 100 µM
  TGI: > 100 µM
[36]
  GI50: > 100 µM
  TGI: > 100 µM
[37]
  GI50: > 100 µM
  TGI: > 100 µM
[38]
  TGI: > 10 µM
[39]
  TGI: > 10 µM
[40]
  GI50: > 100 µM
  TGI: > 100 µM
[41]
  GI50: > 100 µM
  TGI: > 100 µM
[42]
  GI50: > 100 µM
  TGI: > 100 µM
[43]
  GI50: > 100 µM
  TGI: > 100 µM
[44]
  GI50: > 100 µM
  TGI: > 100 µM
[45]
  GI50: > 100 µM
  TGI: > 100 µM
[46]
  GI50: > 100 µM
  TGI: > 100 µM
[47]
  TGI: > 100 µM
[58]
  GI50: > 100 µM
  TGI: > 100 µM
[48]
  GI50: > 100 µM
  TGI: > 100 µM
[49]
  GI50: > 100 µM
  TGI: > 100 µM
[50]
  GI50: > 100 µM
  TGI: > 100 µM
[59]
  GI50: > 100 µM
  TGI: > 100 µM
[51]
  GI50: > 100 µM
  TGI: > 100 µM
[52]
  TGI: > 10 µM
[53]
  TGI: > 100 µM
[54]
  GI50: > 100 µM
  TGI: > 100 µM
[55]
  GI50: > 100 µM
  TGI: > 100 µM
[56]
  GI50: > 100 µM
  TGI: > 100 µM
[57]
  GI50: > 100 µM
  TGI: > 100 µM
